From PubChem BioAssay AID248 (DTP/NCI, 2004)
“And” between values parts separate entries of the source, which are not always exact repeats. Equal entries are not always repeated. Toxic doses and inconclusive results are not listed. No stated cut-off is given here; in the data, active means T/C of 150% or more; inactive means T/C below 125%.

System: L1210 leukemia ip in BDF1 mice, survival T/C
Experiment: NCI In Vivo Anticancer Drug Screen. Data for tumor model L1210 Leukemia (intraperitoneal) in B6D2F1 (BDF1) mice
Conditions: endpoint: mean survival time, higher = longer survival
Summary of the method: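 Tumor was transplanted into mice, which were then dosed with test compound or vehicle alone. Survival was recorded for each group, and the treated figure was expressed relative to the control figure.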

[1] = dose: 100.0 mg/kg/injection, schedule: Q01DX001 (ip), vehicle: saline with Tween-80
[2] = dose: 50.0 mg/kg/injection, schedule: Q01DX009 (ip), vehicle: saline with Tween-80
[3] = dose: 100.0 mg/kg/injection, schedule: Q01DX009 (ip), vehicle: saline with Tween-80
[4] = dose: 200.0 mg/kg/injection, schedule: Q01DX009 (ip), vehicle: saline with Tween-80
[5] = dose: 25.0 mg/kg/injection, schedule: Q04DX003 (ip), vehicle: saline
[6] = dose: 50.0 mg/kg/injection, schedule: Q04DX003 (ip), vehicle: saline
[7] = dose: 100.0 mg/kg/injection, schedule: Q04DX003 (ip), vehicle: saline
[8] = dose: 100.0 mg/kg/injection, schedule: Q01DX009 (ip), vehicle: carboxymethylcellulose (CMC)
[9] = dose: 100.0 mg/kg/injection, schedule: Q04DX002 (ip), vehicle: Klucel (hydroxypropylcellulose) (HPC)
[10] = dose: 100.0 mg/kg/injection, schedule: Q04DX002 (ip), vehicle: carboxymethylcellulose (CMC)
[11] = dose: 100.0 mg/kg/injection, schedule: Q04DX003 (ip), vehicle: carboxymethylcellulose (CMC)
[12] = dose: 200.0 mg/kg/injection, schedule: Q01DX009 (ip), vehicle: carboxymethylcellulose (CMC)
[13] = dose: 200.0 mg/kg/injection, schedule: Q04DX002 (ip), vehicle: Klucel (hydroxypropylcellulose) (HPC)
[14] = dose: 200.0 mg/kg/injection, schedule: Q04DX002 (ip), vehicle: carboxymethylcellulose (CMC)
[15] = dose: 200.0 mg/kg/injection, schedule: Q04DX003 (ip), vehicle: carboxymethylcellulose (CMC)
[16] = dose: 400.0 mg/kg/injection, schedule: Q04DX002 (ip), vehicle: carboxymethylcellulose (CMC)
[17] = dose: 100.0 mg/kg/injection, schedule: Q01DX001 (ip), vehicle: Klucel (hydroxypropylcellulose) (HPC)
[18] = dose: 200.0 mg/kg/injection, schedule: Q01DX001 (ip), vehicle: Klucel (hydroxypropylcellulose) (HPC)
[19] = dose: 100.0 mg/kg/injection, schedule: Q04DX003 (ip), vehicle: saline with Tween-80
[20] = dose: 200.0 mg/kg/injection, schedule: Q04DX003 (ip), vehicle: saline with Tween-80
[21] = dose: 400.0 mg/kg/injection, schedule: Q04DX002 (ip), vehicle: Klucel (hydroxypropylcellulose) (HPC)
[22] = dose: 100.0 mg/kg/injection, schedule: Q01DX001 (ip), vehicle: saline
[23] = dose: 200.0 mg/kg/injection, schedule: Q01DX001 (ip), vehicle: saline

Measured: T/C

C=C1CC(Cc2ccccc2)OC1=O (centres undefined)
inactive: [1] 94 % of control

C(=C(\C[P+](c1ccccc1)(c1ccccc1)c1ccccc1)c1ccccc1)/c1ccccc1
inactive: dose: 5.0 mg/kg/injection, schedule: Q01DX009 (ip), vehicle: saline with Tween-80 97 % of control | dose: 5.0 mg/kg/injection, schedule: Q04DX003 (ip), vehicle: saline with Tween-80 93 % of control | dose: 20.0 mg/kg/injection, schedule: Q04DX003 (ip), vehicle: saline with Tween-80 86 % of control

CN(C)c1ccc(/C=C2\SC(=S)N(c3ccccc3)C2=O)cc1
inactive: [2] 96 % of control | [3] 103 % of control | [4] 100 % of control

CN(C)C(=O)C(OCc1ccccc1)C(OCc1ccccc1)C(OCc1ccccc1)C(O)COCc1ccccc1 (centres undefined)
inactive: dose: 50.0 mg/kg/injection, schedule: Q01DX009 (ip), vehicle: Klucel (hydroxypropylcellulose) (HPC) 88 % of control | dose: 100.0 mg/kg/injection, schedule: Q01DX009 (ip), vehicle: Klucel (hydroxypropylcellulose) (HPC) 96 % of control | dose: 200.0 mg/kg/injection, schedule: Q01DX009 (ip), vehicle: Klucel (hydroxypropylcellulose) (HPC) 100 % of control

C=CCc1cc(CN(C)CCO)c(O)c(OC)c1
inactive: [5] 95 % of control | [6] 95 % of control | [7] 91 % of control

Cc1cccc(Nc2cc(=S)nc(N)[nH]2)c1
inactive: dose: 100.0 mg/kg/injection, schedule: Q01DX Z (ip), vehicle: methylcellulose (MC) 98 % of control | dose: 200.0 mg/kg/injection, schedule: Q01DX Z (ip), vehicle: methylcellulose (MC) 106 % of control

NNC(=O)CNc1cc(Cl)cc(Cl)c1
inactive: dose: 100.0 mg/kg/injection, schedule: Q01DX001 (ip), vehicle: carboxymethylcellulose (CMC) 94 % of control | [8] 92 % of control | [9] 91 % of control | [10] 95 % of control and 100 % of control | [11] 92 % of control | dose: 200.0 mg/kg/injection, schedule: Q01DX001 (ip), vehicle: carboxymethylcellulose (CMC) 96 % of control | [12] 88 % of control | [13] 109 % of control | [14] 95 % of control and 104 % of control | [15] 97 % of control | [16] 98 % of control

CC(C)NC(=O)Oc1cccc(NC(=O)N(C)C)c1
inactive: [3] 93 % of control | [4] 93 % of control | dose: 400.0 mg/kg/injection, schedule: Q01DX009 (ip), vehicle: saline with Tween-80 93 % of control

O=C1C(Cl)=C(Nc2nc3ccccc3s2)C(=O)c2ccccc21
inactive: [17] 100 % of control | [18] 94 % of control

CCC#CC(=O)OCCCC
inactive: dose: 100.0 mg/kg/injection, schedule: Q04DX002 (ip), vehicle: saline 93 % of control | dose: 200.0 mg/kg/injection, schedule: Q04DX002 (ip), vehicle: saline 104 % of control | dose: 400.0 mg/kg/injection, schedule: Q04DX002 (ip), vehicle: saline 96 % of control

CCCCOC(=O)CSSCC(=O)OCCCC
inactive: [19] 106 % of control | [20] 109 % of control

O=C(CCc1cccnc1)Nc1ccccc1
inactive: dose: 100.0 mg/kg/injection, schedule: Q04DX003 (ip), vehicle: Klucel (hydroxypropylcellulose) (HPC) 102 % of control | dose: 200.0 mg/kg/injection, schedule: Q04DX003 (ip), vehicle: Klucel (hydroxypropylcellulose) (HPC) 100 % of control | dose: 400.0 mg/kg/injection, schedule: Q04DX003 (ip), vehicle: Klucel (hydroxypropylcellulose) (HPC) 94 % of control

NC1(c2ccccc2)CCCCC1
inactive: dose: 3.12 mg/kg/injection, schedule: Q01DX009 (ip), vehicle: saline 110 % of control | dose: 6.25 mg/kg/injection, schedule: Q01DX009 (ip), vehicle: saline 104 % of control | dose: 12.5 mg/kg/injection, schedule: Q01DX009 (ip), vehicle: saline 105 % of control | dose: 25.0 mg/kg/injection, schedule: Q01DX009 (ip), vehicle: saline 103 % of control | [5] 98 % of control | dose: 50.0 mg/kg/injection, schedule: Q01DX009 (ip), vehicle: saline 105 % of control | [6] 101 % of control

OC(C1CCCCN1)C12CC3CC(CC(C3)C1)C2 (centres undefined)
inactive: [2] 104 % of control | [3] 98 % of control | [19] 105 % of control | [20] 95 % of control

CC#CCCC(=O)OCC
inactive: [9] 104 % of control | [13] 106 % of control | [21] 95 % of control

CCC(C)OC(=O)Nc1cccc(OC(=O)N(CC)CC)c1 (centres undefined)
inactive: [1] 103 % of control | dose: 200.0 mg/kg/injection, schedule: Q01DX001 (ip), vehicle: saline with Tween-80 90 % of control | dose: 400.0 mg/kg/injection, schedule: Q01DX001 (ip), vehicle: saline with Tween-80 100 % of control

CCN(CC)CCOC(=O)c1[nH]cnc1N
inactive: [22] 96 % of control | [23] 104 % of control | dose: 400.0 mg/kg/injection, schedule: Q01DX001 (ip), vehicle: saline 96 % of control

NC(=N\C1=NCCO1)/C(N)=N/C1=NCCO1
inactive: [7] 109 % of control | dose: 200.0 mg/kg/injection, schedule: Q04DX003 (ip), vehicle: saline 107 % of control | dose: 400.0 mg/kg/injection, schedule: Q04DX003 (ip), vehicle: saline 97 % of control

CCSC1C(O)C(C(O)CO)OC1n1cc(C)c(=O)[nH]c1=O (centres undefined)
inactive: dose: 100.0 mg/kg/injection, schedule: Q01DX005 (ip), vehicle: saline 102 % of control | dose: 200.0 mg/kg/injection, schedule: Q01DX005 (ip), vehicle: saline 107 % of control

CC(C)(C)NC(=O)NCC1CCCC1NC(=O)NC(C)(C)C (centres undefined)
inactive: [9] 92 % of control | [13] 99 % of control | [21] 92 % of control

OCc1ccccc1CN1CCCC1
inactive: [17] 94 % of control | [18] 96 % of control | dose: 400.0 mg/kg/injection, schedule: Q01DX001 (ip), vehicle: Klucel (hydroxypropylcellulose) (HPC) 97 % of control

COc1ccc(C(=O)Nc2cccc3ccccc23)cc1
inactive: [8] 95 % of control | [9] 108 % of control | [10] 93 % of control and 97 % of control | [11] 103 % of control | [12] 98 % of control and 90 % of control | [13] 102 % of control | [14] 95 % of control and 103 % of control | [15] 103 % of control | dose: 400.0 mg/kg/injection, schedule: Q01DX009 (ip), vehicle: carboxymethylcellulose (CMC) 93 % of control and 87 % of control | [21] 112 % of control | [16] 100 % of control and 101 % of control | dose: 400.0 mg/kg/injection, schedule: Q04DX003 (ip), vehicle: carboxymethylcellulose (CMC) 97 % of control

OC(CCN1CCCCC1)(c1cccs1)C(O)(CCN1CCCCC1)c1cccs1 (centres undefined)
inactive: [22] 97 % of control | [23] 90 % of control
